Reference: patent US6242439A, “Azetidinone derivatives for the treatment of HCMV infections” (Boehringer Ingelheim (Canada) Ltd., priority 1998, dated 2001)
Where two headings read alike, the source gives them in different places.

Assays:
HCMV NO protease = HCMV NO protease (Human cytomegalovirus, UniProt P16753); assay: HCMV NO Protease Assay (inhibition of cleavage of internally quenched fluorogenic peptide substrate); format: biochemical; conditions: 100 nM HCMV NO protease, 5 μM substrate, 2.5 h at 30°, pH 8
Experimental: This particular assay determines the ability of a test compound to inhibit the activity of HCMV protease. More specifically, in the assay described herein, the inhibitory activity of the test compound is evaluated on the basis of its ability to interfere with the HCMV No protease cleavage of a fluorogenic peptide substrate which in turn is based on the maturation cleavage site of the enzyme.
A. HCMV NO Protease Assay
Material & Methods: Fluorescence measurements were recorded on a Perkin-Elmer LS-50B spectrofluorimeter equipped with a plate reader accessory. UV measurements were recorded on a Thermomax® microplate reader from Molecular Devices Corporation, Menlo Park, Calif., USA.
HCMV NO protease was assayed with an internally quenched fluorogenic substrate based on the maturation cleavage site (Abz-[…](3-NO2)R--OH, kcat /KM =260 M^-1 s^-1). The fluorescence increase upon cleavage of the Ala-Ser amide bond was monitored using excitation λ=312 nm (slit 2.5 nm) and emission λ=415 nm (slit 5 nm). A protocol adaptable to a 96-well plate format was designed for the determination of IC50 values of inhibitors. […] After this period, enzymatic hydrolysis of the fluorogenic substrate in the absence of inhibitor led to about a 30% conversion. Quenching was not required before fluorescence measurement since the total scanning time by the plate reader accessory was brief relative to the duration of the reaction. The aqueous incubation buffer contained 50 mM tris(hydroxymethyl)aminomethane.HCl pH 8, 0.5M Na2 SO4, 50 mM NaCl, 0.1 mM EDTA, 1 mM tris(2-carboxyethyl)phosphine.HCl, 3% v/v DMSO and 0.05% w/v casein. The final concentrations of HCMV NO protease (expressed in terms of total monomer concentration) and substrate were 100 nM and 5 μM respectively. IC50 values were obtained through fitting of the inhibition curve to a competitive inhibition model using SAS NLIN procedure. The mode of inhibition was determined by measurements of the initial rates (in cuvettes) at various substrate concentrations in the buffer as described above. The IC50 values listed in the following tables the IC50 were obtained according to this assay.

[1] = test system: HCMV (strain AD169, ATCC VR-538); assay: Plaque Reduction Assay (PRA); format: cell-based, human cytomegalovirus (HCMV); conditions: Hs-68 cells, approximately 50 PFU HCMV AD169, 8 days at 37°, read-out: EC50
Experimental: B. Plaque Reduction Assay (PRA)
Hs-68 cells (ATCC #CRL 1635) were seeded in 12-well plates at 83,000 cells/well in 1 mL of DMEM medium (Gibco Canada Inc.) supplemented with 10% fetal bovine serum (FBS, Gibco Canada Inc.). The plates were incubated for 3 days at 37° to allow the cells to reach 80-90% confluency prior to the assay.
The medium was removed from the cells by aspiration. The cells were then infected with approximately 50 PFU of HCMV (strain AD169, ATCC VR-538) in DMEM medium supplemented with 5% inactivated FBS (assay medium). (DMEM medium is commercially available and has been described by R. Dulbecco et al., Virology 1959, 8, 396.) The virus was allowed to adsorb to cells for 2 h at 37°. Following viral adsorption, the medium was removed from the wells by aspiration. The cells were then incubated with or without 1 mL of appropriate concentrations of test reagent in assay medium. Occasionally, test compounds were added 24 h post-infection. After 4 days of incubation at 37°, the medium was exchanged with fresh medium containing test compound and 4 days later the cells were fixed with 1% aqueous formaldehyde and stained with a 2% violet solution in 20% ethanol in water. Microscopic plaques were counted using a stereomicroscope. Drug effects were calculated as a percent reduction in the number of plaques in the presence of each drug concentration compared to the number observed in the absence of drug. Ganciclovir was used as a positive control in all experiments.

[2] = Cytotoxic effects, tetrazolium salt (MTT) metabolic assay; format: cell-based; conditions: read-out: TC50 (the source's name)
Experimental: In conjunction with the appropriate starting materials and intermediates, the procedures of examples 1 to 11 can be used to prepare other compounds of formula 1. Examples of compounds thus prepared are listed in the following Tables I, II and III together with mass spectrum data for the compounds, and results from the assays A and B of example 12. Cytotoxic effects noted as TC50 in the following tables were determined according to the tetrazolium salt (MTT) metabolic assay, F. Denizot and F. Lang, J. Immun. Meth., 1986, 89, 271.

[3] = Human betaherpesvirus 5, AD169, Hs68, 192 h

Chain of HCMV NO protease (P16753 1-256): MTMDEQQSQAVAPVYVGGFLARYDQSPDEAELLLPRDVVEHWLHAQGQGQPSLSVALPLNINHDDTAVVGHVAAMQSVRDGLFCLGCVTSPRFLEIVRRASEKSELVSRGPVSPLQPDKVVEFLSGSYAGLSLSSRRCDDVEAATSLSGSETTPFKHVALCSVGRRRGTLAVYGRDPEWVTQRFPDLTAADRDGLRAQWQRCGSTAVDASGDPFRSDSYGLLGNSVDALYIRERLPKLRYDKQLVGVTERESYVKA

Compound | IC50 (HCMV NO protease) [µM] | EC50 [1, 3] [µM] | CC50 [2] [µM] | EC50 [1] [µM]
CN(Cc1ccc(C#N)cc1)C(=O)N1C(=O)C[C@@H]1Cc1ccccc1 [Entry 145] | 6.1 | 120 | > 250 | –
CC[C@@H](C)[C@H]1CC(=O)N1C(=O)N[C@H](CC)c1ccccc1 [Entry 216] | 4.4 | 110 | > 250 | –
CC[C@@H](NC(=O)N1C(=O)C[C@@H]1CCc1ccccc1)c1ccccc1 [Entry 212] | 4.3 | 140 | > 250 | –
COc1c(C)cc(NC(=O)N2C(=O)C[C@@H]2Cc2ccccc2)cc1C [Entry 106] | 2.4 | 190 | > 250 | –
O=C1C[C@H](Cc2ccccc2)N1C(=O)NCc1ccccc1 [Entry 116, 4(S)-Benzyl-2-oxoazetidine-1-carboxylic acid benzyl-amide] | 8.9 | 53 | > 250 | –
CN(Cc1ccc(C(F)(F)F)cc1)C(=O)N1C(=O)CC1Cc1nnn(C)n1 (stereo in doubt) [Entry 223, 4(R)-(2-methyl-2H-tetrazol-5-ylmethyl)-2-oxoazetidine-1-carboxylic acid N-methyl-N{{(4-trifluoromethyl)phenyl}methyl}amide] | 5.7 | 94 | > 195 | –
Cc1ccc(NC(=O)N2C(=O)C[C@@H]2Cc2ccccc2)cc1 [Entry 103] | 5.3 | > 250 | > 250 | –
COC(=O)c1ccc(CN(C)C(=O)N2C(=O)C[C@@H]2Cc2ccccc2)cc1 [Entry 131] | 2.5 | 140 | > 250 | –
C[C@@H]1C(=O)N(C(=O)NCc2ccccc2)[C@H]1Cc1ccccc1 [Entry 207, 4(S)-Benzyl-3(S)-methyl-2-oxoazetidine-1-carboxylic acid benzylamide] | 5.3 | 140 | > 250 | –
CCCC(NC(=O)N1C(=O)CC1Cc1ccccc1)c1ccccc1 (stereo not drawn) [Entry 121] | 3.4 | 160 | > 250 | –
CN(Cc1ccc([N+](=O)[O-])cc1)C(=O)N1C(=O)C[C@@H]1Cc1nccs1 [Entry 227] | 2.5 | > 29 | > 29 | –
CCC(NC(=O)N1C(=O)C[C@@H]1Cc1ccccc1)c1ccncc1 (stereo partly drawn) [Entry 109] | 1.6 | 130 | > 250 | –
CN(Cc1ccc([N+](=O)[O-])cc1)C(=O)N1C(=O)C[C@@H]1Cc1cccs1 [Entry 226] | 1.3 | 70 | > 79 | –
CC[C@@H](NC(=O)N1C(=O)C[C@@H]1C(C)C)c1ccccc1 [Entry 213] | 5.9 | 210 | > 250 | –
CN(Cc1ccc([N+](=O)[O-])cc1)C(=O)N1C(=O)C[C@@H]1Cc1ccccc1 [Entry 122] | 1.5 | 105 | > 250 | –
CN(Cc1ccc(SC(F)(F)F)cc1)C(=O)N1C(=O)C[C@@H]1Cc1ccccc1 [Entry 137] | 6.9 | > 250 | > 250 | –

Compound | IC50 (HCMV NO protease) [µM] | EC50 [1, 3] [µM] | CC50 [2] [µM] | EC50 [1] [µM]
Cc1ccc(CN(C)C(=O)N2C(=O)C[C@@H]2Cc2ccccc2)cc1 [Entry 129] | 8.9 | 140 | > 200 | –
CN(Cc1ccc(Cl)cc1)C(=O)N1C(=O)C[C@@H]1Cc1ccccc1 [Entry 126] | 6.9 | 150 | > 250 | –
CC[C@@H](NC(=O)N1C(=O)C[C@@H]1Cc1nnn(C)n1)c1ccccc1 [Entry 222] | 5 | 125 | > 148 | –
CN(Cc1ccccc1[N+](=O)[O-])C(=O)N1C(=O)C[C@@H]1Cc1ccccc1 [Entry 124] | 6.9 | 150 | > 250 | –
CN(Cc1ccc(C(F)(F)F)cc1)C(=O)N1C(=O)C[C@@H]1Cc1cccs1 [Entry 228] | 4.5 | > 16 | > 16 | –
COc1ccc(NC(=O)N2C(=O)C[C@@H]2Cc2ccccc2)cc1 [Entry 102] | 3.9 | 215 | > 250 | –
O=C1C[C@H](Cc2ccccc2)N1C(=O)Nc1ccc(F)cc1 [Entry 101] | 3.7 | > 250 | > 250 | –
CC(=O)Nc1ccc(CN(C)C(=O)N2C(=O)C[C@@H]2Cc2ccccc2)cc1 [Entry 132] | 17 | 150 | > 250 | –
CCC(NC(=O)N1C(=O)[C@@H](C)[C@@H]1Cc1ccccc1)c1ccncc1 (single isomer, unassigned) [Entry 205] | 21 | – | > 250 | > 250
CN(Cc1ccc(C(F)(F)F)cc1)C(=O)N1C(=O)C[C@@H]1Cc1nc2ccccc2s1 [Entry 219] | 0.88 | 110 | > 250 | –
O=C1C[C@H](Cc2ccccc2)N1C(=O)NCc1cccnc1 [Entry 142] | 9.7 | > 250 | > 250 | –
C[C@@H](NC(=O)N1C(=O)C[C@@H]1Cc1ccccc1)c1cccc2ccccc12 [Entry 105] | 7.7 | > 18 | > 18 | –
CN(Cc1ccc([N+](=O)[O-])cc1)C(=O)N1C(=O)C[C@@H]1Cc1nc2ccccc2s1 [Entry 225] | 0.7 | 30 | > 50 | –
CCC(NC(=O)N1C(=O)[C@@H](C)[C@@H]1Cc1ccccc1)c1ccncc1 (single isomer, unassigned) [Entry 206] | 3.2 | – | > 250 | 96
O=C1C[C@H](Cc2ccc(I)cc2)N1C(=O)NCc1ccncc1 [Entry 211] | 8.6 | > 100 | > 100 | –
C[C@@H]1C(=O)N(C(=O)Nc2ccncc2)[C@H]1Cc1ccccc1 [Entry 204] | 0.97 | 205 | > 250 | –
